We go through five compounds from US20230295152A1 (SENDA BIOSCIENCES, INC., priority 2019, published 2023).

Each structure is given as a SMILES string. pIC50: −log10 of the molar value.

In one data set the target is T1, CYP3A4 (Homo sapiens, UniProt P08684).
T1 construct: from tissue; host or cells: human liver microsomes (HLM)
As to the kind of experiment: CYP Inhibition Assay in human liver microsomes, CYP3A4. Format: in vitro ADME. The conditions noted are these: pH 7.4. The procedure:
Stock solutions of test compounds were prepared in DMSO at the concentrations of 10 mM. Stock solution was diluted to 2 mM with acetonitrile. The final concentration of test compounds was 10 μM. For the stock solution preparation, if the positive control could not be well dissolved in the mixture of DMSO and acetonitrile (1:4) at the highest concentration, another mixture of acetonitrile and DMSO, the mixture of acetonitrile and H2O or DMSO will be used to dissolve the compound.
The substrate solutions are stored in a −20° C. freezer and warmed to room temperature prior to use.
Preparation of Phosphate Buffer (100 mmol/L, pH 7.4): To prepare the Solution A, 7.098 g of disodium hydrogen phosphate were weighed out and added into 500 mL of pure water, then sonicated to dissolve the content. To prepare the Solution B, 3.400 g of potassium dihydrogen phosphate were weighed out and added into 250 mL of pure water, then sonicated to dissolve the content. Solution A was placed on a stirrer and slowly Solution B was added into Solution A until the pH reached 7.4. Preparation of 10 mmol/L NADPH Solution: NADPH was dissolved at 8.334 mg/mL in phosphate buffer; the solution was freshly prepared prior to use.
The master solution was prepared according to Table 45. The incubation was carried out in 96 deep well plates. The following volumes were dispensed into each well of the incubation plate: 179 μL of the substrate and HLM mixture in phosphate buffer, 1 μL of the compound working solution, or vehicle (mixture of DMSO and acetonitrile (1:4)). The incubation plate was placed into the water bath and pre-warmed at 37° C. for 15 minutes before the reactions was started by the addition of 20 μL of 10 mmol/L NADPH solution in phosphate buffer. After the addition of NADPH, the incubation plate was incubated at 37° C. for corresponding time. The assay was performed in duplicate.
The reaction was quenched by the addition of 1.5 volume (300 μL) of cold acetonitrile containing 3% formic acid and internal standards (200 nM Labetalol, 200 nM Alprazolam and 200 nM tolbutamide). The plate was centrifuged at 3,220 g for 40 minutes. 100 μL of the supernatant was transferred to a new plate. The supernatant was diluted with 100 μL pure water. The samples were mixed well and analyzed using UPLC/MS/MS.
Data Analysis: The automatic peak integration areas are checked for all the samples. The Analyte Peak Area and Internal Standard Peak Area are exported into excel spreadsheet. The inhibition of each P450 enzyme in human liver microsomes is measured as the percentage decrease in the activity of marker metabolite formation compared to non-inhibited controls (=100% activity).
The percentage of remaining activity was calculated as follows: […]

For data set [1], the system named is CYP1A1 mRNA levels in HT26. As to the kind of experiment: CYP1A1 Gene Expression Assay, mouse CRC cell line HT26. Format: cell-based. The conditions noted are these: for pIC50: Mus musculus; for Mouse CYP1A1 % eff: efficacy given with the IC50. How it is done: Human and mouse colorectal cancer (CRC) cell lines, HT29 and HT26 respectively, American Type Culture Collection (ATCC) are plated in a sterile tissue culture treated 96-well plate (ThermoFisher) at 8.0×10^5 cells per well, and grown overnight at 37° C., 5% CO2 in DMEM complete (Gibco) in order to achieve confluence. After the incubation medium is aspirated off the cell monolayers, tissues are then washed with 200 μL of warmed PBS solution, and subsequently 190 μL of pre-warmed growth medium is added to each well. AhR antagonist of interest are diluted at a 20×concentration in growth medium containing 2% DMSO, and 10 μL of compound solutions are added to respective wells in triplicate. After 1 hr, AHR activating ligand, such as TCDD, kynurenine, ITE (2-(1H-indole-3-ylcarbonyl)-4-thiazolecarboxylic methyl ester), VAF347, BNF (beta-naphthoflavone), FICZ (6-formylindolo(3,2-b) carbazole or other AHR ligands, is added with or without AHR antagonist for 24 hours, after which media will be removed and stored at −80 C for later cytokine analysis. At the end of the incubation, medium is aspirated off the CRC cells, and the cells washed with 100 μL of cold PBS solution. RNA is extracted via the TaqMan™ Gene Expression Cells-to-CT™ Kit (ThermoFisher) according to the manufacturer's protocol. The QuantStudio 6 Flex (Applied Biosciences) is used to analyze mRNA levels of CYP1A1 using GAPDH as the endogenous control. TaqMan™ probe sets for both genes are acquired from ThermoFisher. Samples are run in triplicate and data is analyzed using the QuantStudio software and reported as linear and log 2(ΔΔCT) values. Statistical analysis is performed using a two-tailed t-test comparing CYP1A1 levels in the presence of each individual compound to the vehicle negative control. […] This assay can be used to confirm the inhibitory effect of the compounds prior to testing using an in vivo model.

T1 sequence (P08684 whole entry): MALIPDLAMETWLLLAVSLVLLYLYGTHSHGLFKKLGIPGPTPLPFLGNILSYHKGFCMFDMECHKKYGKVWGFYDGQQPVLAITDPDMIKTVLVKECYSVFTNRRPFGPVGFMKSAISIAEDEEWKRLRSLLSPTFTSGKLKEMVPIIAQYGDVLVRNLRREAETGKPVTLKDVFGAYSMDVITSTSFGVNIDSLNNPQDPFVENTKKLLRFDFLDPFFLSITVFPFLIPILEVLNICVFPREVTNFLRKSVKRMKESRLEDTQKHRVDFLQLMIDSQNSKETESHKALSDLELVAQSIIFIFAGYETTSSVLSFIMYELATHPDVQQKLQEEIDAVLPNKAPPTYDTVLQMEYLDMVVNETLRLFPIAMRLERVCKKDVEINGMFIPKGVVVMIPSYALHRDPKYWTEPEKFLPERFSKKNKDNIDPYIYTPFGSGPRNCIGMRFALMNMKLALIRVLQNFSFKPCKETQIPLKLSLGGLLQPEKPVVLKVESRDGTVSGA

`O=c1c2cc(-c3ccc(Cl)cc3)nc(-c3cccnc3)c2ncn1[C@H]1COC[C@@H]1O` [Compound 125, 6-(4-chlorophenyl)-3-((3S,4R)-4-hydroxytetrahydrofuran-3-yl)-8-(pyridin-3-yl)pyrido[3,4-d]pyrimidin-4(3H)-one]: at CYP3A4, the inhibition (usually the drop in the measured response relative to a control, in per cent) at 10 µM is 23.8%.
`C[C@@H](CO)n1cnc2c(-c3cccnc3)nc(-c3ccc(C(F)(F)F)cn3)cc2c1=O` [Compound 46, (S)-3-(1-hydroxypropan-2-yl)-8-(pyridin-3-yl)-6-(5-(trifluoromethyl)pyridin-2-yl)pyrido[3,4-d]pyrimidin-4(3H)-one]: in data set [1], the pIC50 (as a rule, −log10 of the IC50, conventionally taken in molar units) is 7.73 and the “Mouse CYP1A1 % eff” value is given as ~96%. For the same compound, the inhibition at 10 µM against CYP3A4 was 2.26%.
Take `CC(C)(O)Cn1cnc2c(-c3cccnc3)nc(-c3ccc(Cl)cc3)cc2c1=O` [Compound 18]: the inhibition at 10 µM at CYP3A4 was 35.2%.
As to `CC(C)(O)Cn1cnc2c(-c3cccnc3)nc(-c3ccc(C(F)(F)F)nc3)cc2c1=O` [Compound 9], in data set [1], the pIC50 was 8.57 and the “Mouse CYP1A1 % eff” value is given as ~55%.
As to `C[C@H](n1cnc2c(-c3cnn(C)c3)nc(-c3ccc(Cl)cc3)cc2c1=O)C(C)(C)O` [Compound 30], in data set [1], the pIC50 was 8.54 and the “Mouse CYP1A1 % eff” value is ~56%. This compound yielded an inhibition at 10 µM at CYP3A4 of 12.2%.
